For orientation: IC50 means the concentration that gives 50% inhibition.

In this assay the target is T1, IL-17A/A (Homo sapiens, UniProt Q16552).
T1 construct: purchased Genscript Z03228
T1 sequence (Q16552 24-155): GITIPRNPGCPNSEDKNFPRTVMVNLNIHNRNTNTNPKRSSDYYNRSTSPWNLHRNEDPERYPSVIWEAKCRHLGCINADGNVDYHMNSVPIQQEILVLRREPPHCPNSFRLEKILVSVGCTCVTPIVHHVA
The experiment in a line: HEK-Blue IL-17A/A inhibition assay (SEAP reporter). Type of assay: cell-based. The note with it: HEK-Blue cells (HEK 293 expressing IL-17RA, IL-17RC, Act1); IL-17A/A stimulation; 20 hours; SEAP read at A630; 4-parameter fit. The method, boiled down:
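HEK 293 cells engineered with IL-17RA, IL-17RC and Act1 (NFκB-driven SEAP) given titrated compound (top final 10, 1 or 0.3 uM; 0.1% DMSO) just before IL-17A/A, then incubated 20 h. SEAP in media developed with Quanti-Blue, read at A630; IC50 by 4-parameter nonlinear fit.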
Turning to `Cc1cc(NC(=O)[C@@H](NC(=O)c2ccnn2C(C)C)C(C2CC2)C2CC2)c(F)cc1C(C)C(=O)NC(C1CCOC1)C(F)(F)F` (some centres unmarked) [Compound 209], the IC50 was under 100 nM.

In the case of `Cc1cc(NC(=O)[C@@H](NC(=O)c2nonc2C)C(C2CC2)C2CC2)c(F)cc1C(C)C(=O)NCC(F)(F)F` (some centres unmarked) [Compound 210], the IC50 was 100 to 1000 nM.

For `Cc1cc(NC(=O)[C@@H](NC(=O)c2nonc2C)C(C2CC2)C2CC2)c(F)cc1C(C)C(=O)N(C)CC(F)(F)F` (some centres unmarked) [Compound 211], the half-inhibitory concentration (IC50) was under 100 nM.

As for `CC(C(=O)NCC(F)(F)F)c1cc(F)c(NC(=O)[C@@H](NC(=O)c2ccnn2C(C)C)C(C2CC2)C2CC2)cc1N(C)C` (some centres unmarked) [Compound 214], the IC50 was over 1000 nM.

Turning to `Cc1cc(NC(=O)[C@@H](NC(=O)c2ccnn2C)C2CCC(F)(F)CC2)c(F)cc1C(C)C(=O)NCC(F)(F)F` (some centres unmarked) [Compound 215], the concentration for half-maximal inhibition (IC50) is over 1000 nM.

Consider `Cc1cc(NC(=O)[C@@H](NC(=O)c2ccnn2C)C2CCC(F)(F)CC2)c(F)cc1C(C)C(=O)N(C)CC(F)(F)F` (some centres unmarked) [Compound 216], for which the IC50 was 100 to 1000 nM.

Regarding `CCn1nccc1C(=O)N[C@H](C(=O)Nc1cc(C)c(C(C)C(=O)NCC(F)(F)F)cc1F)C1CCC(F)(F)CC1` (some centres unmarked) [Compound 217], the IC50 is over 1000 nM.

Turning to `CCn1nccc1C(=O)N[C@H](C(=O)Nc1cc(C)c(C(C)C(=O)N(C)CC(F)(F)F)cc1F)C1CCC(F)(F)CC1` (some centres unmarked) [Compound 218], the IC50 is under 100 nM.

For `CCn1nccc1C(=O)N[C@H](C(=O)Nc1ccc(C(C)C(=O)N2CCC(C(F)(F)F)C2)cc1F)C(C1CC1)C1CC1` (some centres unmarked) [Compound 221], the IC50 lay in the range of 100 to 1000 nM.

Turning to `Cc1cc(NC(=O)[C@@H](NC(=O)c2ccnn2C)C(C2CC2)C2CC2)c(F)cc1C(C)C(=O)NCC(F)(F)F` (some centres unmarked) [Compound 222], the concentration for half-maximal inhibition (IC50) was over 1000 nM.

On to `Cc1cc(NC(=O)[C@@H](NC(=O)c2ccnn2C)C(C2CC2)C2CC2)c(F)cc1C(C)C(=O)N(C)CC(F)(F)F` (some centres unmarked) [Compound 223], for which the IC50 was under 100 nM.

Consider `CCc1nonc1C(=O)N[C@H](C(=O)Nc1cc(C)c(C(C)C(=O)NCC(F)(F)F)cc1F)C1CCC(F)(F)CC1` (some centres unmarked) [Compound 224], for which the 50% inhibitory concentration (IC50) was in the range of 100 to 1000 nM.

With `CCc1nonc1C(=O)N[C@H](C(=O)Nc1cc(C)c(C(C)C(=O)N(C)CC(F)(F)F)cc1F)C1CCC(F)(F)CC1` (some centres unmarked) [Compound 225], the IC50 fell in the range of 100 to 1000 nM.

In the case of `CNCc1cc(NC(=O)[C@@H](NC(=O)c2ccnn2C(C)C)C(C2CC2)C2CC2)c(F)cc1C(C)C(=O)NCC(F)(F)F` (some centres unmarked) [Compound 226], the IC50 lay within 100 to 1000 nM.

As to `CC(C(=O)N(C)CC(F)(F)F)c1cc(F)c(NC(=O)[C@@H](NC(=O)c2ccnn2C(C)C)C(C2CC2)C2CC2)cc1CNCCO` (some centres unmarked) [Compound 227], the IC50 lay within 100 to 1000 nM.

For `CC(C(=O)N1CCC(C(N)=O)C1C(F)(F)F)c1cc(F)c(NC(=O)[C@@H](NC(=O)c2ccnn2C(C)C)C(C2CC2)C2CC2)cc1C(F)(F)F` (some centres unmarked) [Compound 228], the IC50 fell in the range of 100 to 1000 nM.

Regarding `CC(C)c1nocc1C(=O)N[C@H](C(=O)Nc1cc(C(F)(F)F)c(C(C)C(=O)NCC(F)(F)F)cc1F)C(C1CC1)C1CC1` (some centres unmarked) [Compound 229], the IC50 is over 1000 nM.

For the compound `CC(C(=O)NCC(F)(F)F)c1cc(F)c(NC(=O)[C@@H](NC(=O)c2ccnn2C(C)C)C(C2CC2)C2CC2)cc1N1CCOCC1` (some centres unmarked) [Compound 232], the IC50 is over 1000 nM.

As for `CC(C(=O)N(C)CC(F)(F)F)c1cc(F)c(NC(=O)[C@@H](NC(=O)c2ccnn2C(C)C)C(C2CC2)C2CC2)cc1N(C)C` (some centres unmarked) [Compound 233], the half-inhibitory concentration (IC50) was over 1000 nM.

On to `CC(C(=O)NCC(F)(F)F)c1cc(F)c(NC(=O)[C@@H](NC(=O)c2ccnn2C(C)C)C(C2CC2)C2CC2)cc1N(C)C` (some centres unmarked) [Compound 234], for which the IC50 was over 1000 nM.

Turning to `CC(C(=O)N1CCCN1)c1ccc(NC(=O)[C@@H](NC(=O)c2ccnn2C(C)C)C(C2CC2)C2CC2)c(F)c1` (some centres unmarked) [Compound 235], the IC50 is over 1000 nM.

As for `CCn1nccc1C(=O)N[C@H](C(=O)Nc1cc(C)c(C(C)C(=O)NCC(F)(F)F)cc1F)C(C1CC1)C1CC1` (some centres unmarked) [Compound 236], the IC50 was under 100 nM.

As to `Cc1c(F)c(NC(=O)[C@@H](NC(=O)c2conc2C2CC2)C(C2CC2)C2CC2)cc(C(F)(F)F)c1C(C)C(=O)NCC(F)(F)F` (some centres unmarked) [Compound 237], the IC50 was over 1000 nM.

Regarding `CC(C)c1nonc1C(=O)N[C@H](C(=O)Nc1cc(C(F)(F)F)c(C(C)C(=O)NCC(F)(F)F)cc1F)C(C1CC1)C1CC1` (some centres unmarked) [Compound 238], the IC50 was 100 to 1000 nM.

With `CCn1nccc1C(=O)N[C@H](C(=O)Nc1cc(C(F)(F)F)c(C(C)C(=O)N2CC(F)(F)CC2C(F)(F)F)cc1F)C(C1CC1)C1CC1` (some centres unmarked) [Compound 239], the IC50 was 100 to 1000 nM.

With `CCn1nccc1C(=O)N[C@H](C(=O)Nc1cc(C(F)(F)F)c(C(C)C(=O)N2CC(F)(F)C(F)(F)C2)cc1F)C(C1CC1)C1CC1` (some centres unmarked) [Compound 242], the IC50 lay in the range of 100 to 1000 nM.

For `CCN(C)C(=O)C(C)c1cc(F)c(NC(=O)[C@@H](NC(=O)c2ccnn2CC)C(C2CC2)C2CC2)cc1C` (some centres unmarked) [Compound 243], the IC50 is 100 to 1000 nM.

Regarding `CCNC(=O)C(C)c1cc(F)c(NC(=O)[C@@H](NC(=O)c2ccnn2CC)C(C2CC2)C2CC2)cc1C` (some centres unmarked) [Compound 244], the IC50 is over 1000 nM.

Take `CCn1nccc1C(=O)N[C@H](C(=O)Nc1cc(OC(F)(F)F)c(C(C)C(=O)N(C)CC(F)(F)F)cc1F)C(C1CC1)C1CC1` (some centres unmarked) [Compound 245]: the half-maximal inhibitory concentration (IC50) fell in the range of 100 to 1000 nM.

In the case of `CC(C(=O)N(C)CC(F)(F)F)c1cc(F)c(NC(=O)[C@@H](NC(=O)c2ccnn2C(C)C)C(C2CC2)C2CC2)cc1OC(F)(F)F` (some centres unmarked) [Compound 246], the IC50 was over 1000 nM.

As for `CC(C(=O)NCC(F)(F)F)c1cc(F)c(NC(=O)[C@@H](NC(=O)c2ccnn2C)C(C2CC2)C2CC2)cc1OC(F)(F)F` (some centres unmarked) [Compound 247], the IC50 was over 1000 nM.

For `CCn1nccc1C(=O)N[C@H](C(=O)Nc1cc(OC(F)(F)F)c(C(C)C(=O)NCC(F)(F)F)cc1F)C(C1CC1)C1CC1` (some centres unmarked) [Compound 248], the IC50 was over 1000 nM.

`COC(=O)Nc1cc(NC(=O)[C@@H](NC(=O)c2ccnn2C(C)C)C(C2CC2)C2CC2)c(F)cc1C(C)C(=O)NCC(F)(F)F` (some centres unmarked) [Compound 249]: the IC50 lay in the range of 100 to 1000 nM.

As for `CC(C(=O)N1CCC(C(N)=O)C1C(F)(F)F)c1cc(F)c(NC(=O)[C@@H](NC(=O)c2ccnn2C(C)C)C(C2CC2)C2CC2)cc1C(F)(F)F` (some centres unmarked) [Compound 250], the IC50 is under 100 nM.

In the case of `Cc1cc(NC(=O)[C@@H](NC(=O)c2nonc2C2CC2)C(C2CC2)C2CC2)c(F)cc1C(C)C(=O)NCC(F)(F)F` (some centres unmarked) [Compound 251], the concentration for half-maximal inhibition (IC50) was under 100 nM.

`CCn1nccc1C(=O)N[C@H](C(=O)Nc1cc(OC(F)(F)F)c(C(C)C(=O)N(C)CC(F)(F)F)cc1F)C(C1CC1)C1CC1` (some centres unmarked) [Compound 253]: the half-inhibitory concentration (IC50) is under 100 nM.

As to `CC(C(=O)NCC(F)(F)F)c1cc(F)c(NC(=O)[C@@H](NC(=O)c2ccnn2C(C)C)C(C2CC2)C2CC2)cc1Nc1ccccn1` (some centres unmarked) [Compound 254], the IC50 was over 1000 nM.

With `CCOC(=O)Nc1cc(NC(=O)[C@@H](NC(=O)c2ccnn2C(C)C)C(C2CC2)C2CC2)c(F)cc1C(C)C(=O)NCC(F)(F)F` (some centres unmarked) [Compound 255], the IC50 is over 1000 nM.

Consider `CC(C(=O)NCC(F)(F)F)c1cc(F)c(NC(=O)[C@@H](NC(=O)c2ccnn2C(C)C)C(C2CC2)C2CC2)cc1NC(=O)OCCN` (some centres unmarked) [Compound 256], for which the IC50 was in the range of 100 to 1000 nM.

Regarding `CC(C(=O)N(C)CC(F)(F)F)c1cc(F)c(NC(=O)[C@@H](NC(=O)c2ccnn2C(C)C)C(C2CC2)C2CC2)cc1OC(F)(F)F` (some centres unmarked) [Compound 257], the half-inhibitory concentration (IC50) was under 100 nM.

On to `CC(C(=O)NCC(F)(F)F)c1cc(F)c(NC(=O)[C@@H](NC(=O)c2ccnn2C)C(C2CC2)C2CC2)cc1OC(F)(F)F` (some centres unmarked) [Compound 258], for which the IC50 is under 100 nM.

Regarding `CCn1nccc1C(=O)N[C@H](C(=O)Nc1cc(OC(F)(F)F)c(C(C)C(=O)NCC(F)(F)F)cc1F)C(C1CC1)C1CC1` (some centres unmarked) [Compound 259], the IC50 is under 100 nM.

For the compound `CC(C(=O)NCC(F)(F)F)c1cc(F)c(NC(=O)[C@@H](NC(=O)c2ccnn2C(C)C)C(C2CC2)C2CC2)cc1CS(C)(=N)=O` (some centres unmarked) [Compound 260], the IC50 was 100 to 1000 nM.

In the case of “N-((S)-1,1-dicyclopropyl-3-((2-fluoro-4-((S)-1-oxo-1-(3-(trifluoromethyl)azetidin-1-yl)propan-2-yl)phenyl)amino)-3-oxopropan-2-yl)-1-ethyl-1H-pyrazole-5-carboxamide [Compound 14]”, the IC50 is 100 to 1000 nM.

Values taken from US20240376056A1, “PHENYL ACETAMIDE BASED IL-17A MODULATORS AND USES THEREOF” (DiCE Alpha, Inc., priority 2021, published 2024).
